Results reported in PubChem BioAssay AID1845210 (Molecular Pharmacology Branch, DTP, NCI, 2023).

System: NCI-H226 complex tumor spheroids, viability
Assay: Anticancer human tumor NCI-H226 cell line growth inhibition;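 note: spheroids exposed to compound for 7 days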;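 for viability, T/C: 100% = DMSO vehicle control viability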
Conditions: for IC50: curve of first compound; for viability, T/C: stronger effect = lower value
Method in brief: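 Single agents and combinations were tested on spheroids built from tumor cells plus HUVEC and hMSC, at half-log dilutions starting at or near clinical Cmax, else 10 microM; final DMSO 0.25% (v/v).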

CC(C)n1c(=O)n(C)c2cnc3cc(F)c(-c4ccc(OCCCN5CCCCC5)nc4)cc3c21 + Cn1nnc2c(C(N)=O)ncn2c1=O
IC50 (second compound 1 µM): 5.83 µM
IC50 (second compound 3.16 µM): 5.92 µM
IC50 (second compound 10 µM): 6 µM
IC50 (second compound 31.6 µM): 5.72 µM
IC50 (second compound 100 µM): > 10 µM
viability, T/C (second compound 1 µM, first compound 0.0316 µM): 111%
viability, T/C (second compound 1 µM, first compound 0.1 µM): 115%
viability, T/C (second compound 1 µM, first compound 0.316 µM): 120%
viability, T/C (second compound 1 µM, first compound 1 µM): 118%
viability, T/C (second compound 1 µM, first compound 3.16 µM): 102%
viability, T/C (second compound 1 µM, first compound 10 µM): 4.4%
viability, T/C (second compound 3.16 µM, first compound 0.0316 µM): 112%
viability, T/C (second compound 3.16 µM, first compound 0.1 µM): 113%
viability, T/C (second compound 3.16 µM, first compound 0.316 µM): 114%
viability, T/C (second compound 3.16 µM, first compound 1 µM): 102%
viability, T/C (second compound 3.16 µM, first compound 3.16 µM): 104%
viability, T/C (second compound 3.16 µM, first compound 10 µM): 4.91%
viability, T/C (second compound 10 µM, first compound 0.0316 µM): 114%
viability, T/C (second compound 10 µM, first compound 0.1 µM): 119%
viability, T/C (second compound 10 µM, first compound 0.316 µM): 109%
viability, T/C (second compound 10 µM, first compound 1 µM): 114%
viability, T/C (second compound 10 µM, first compound 3.16 µM): 109%
viability, T/C (second compound 10 µM, first compound 10 µM): 3.29%
viability, T/C (second compound 31.6 µM, first compound 0.0316 µM): 117%
viability, T/C (second compound 31.6 µM, first compound 0.1 µM): 108%
viability, T/C (second compound 31.6 µM, first compound 0.316 µM): 110%
viability, T/C (second compound 31.6 µM, first compound 1 µM): 99.4%
viability, T/C (second compound 31.6 µM, first compound 3.16 µM): 99.9%
viability, T/C (second compound 31.6 µM, first compound 10 µM): 3.07%
viability, T/C (second compound 100 µM, first compound 0.0316 µM): 122%
viability, T/C (second compound 100 µM, first compound 0.1 µM): 115%
viability, T/C (second compound 100 µM, first compound 0.316 µM): 115%
viability, T/C (second compound 100 µM, first compound 1 µM): 117%
viability, T/C (second compound 100 µM, first compound 3.16 µM): 105%
viability, T/C (second compound 100 µM, first compound 10 µM): 64%
